According to article PMC5343222, “Inhibitory Activities of Stauntonia hexaphylla Leaf Constituents on Rat Lens Aldose Reductase and Formation of Advanced Glycation End Products and Antioxidant” (BioMed Research International, 2017):

Experiments:
[1] = molecular target: T1, rat lens aldose reductase (RLAR) (Rattus norvegicus, UniProt P07943); experiment: In vitro determination of RLAR inhibition (NADPH decrease at 340 nm, DL-glyceraldehyde substrate); type: biochemical; conditions: crude RLAR from Sprague-Dawley rat lenses; mean ± SEM, three independent experiments in duplicate
T1 construct: the supernatant was collected and used as the RLAR; from tissue; host or cells: lens of Sprague-Dawley rats (crude homogenate supernatant)
Description: Crude RLAR was prepared as follows: lenses […] were removed from Sprague-Dawley rats and frozen at −70°C until use. Noncataractous transparent lenses were pooled and a homogenate was prepared in 0.1 M phosphate buffer saline (pH 6.2). RLAR homogenate was then centrifuged at 9600 ×g for 20 min. After centrifugation in a refrigerated centrifuge, the supernatant was collected and used as the RLAR. All procedures were carried out at 4°C [10].
RLAR activity was assayed spectrophotometrically by measuring the decrease in the absorption of NADPH at 340 nm over a 4 min period using DL-glyceraldehyde as the substrate. Each 1.0 mL cuvette contained equal units of the enzyme, 0.1 M sodium phosphate buffer (pH 6.2), 0.3 mM NADPH, with or without 10 mM of the substrate, and an inhibitor [11].

[2] = test system: advanced glycation end products (AGEs) formation; experiment: Bovine serum albumin-methylglyoxal assay on AGEs formation; type: biochemical; conditions: BSA 50 mg/mL + methylglyoxal 100 mM, 37°C, 24 h; mean ± SEM
Description: Bovine serum albumin (50 mg/mL) was incubated with methylglyoxal (100 mM) in sodium phosphate buffer (0.1 M, pH 7.4) in the presence of various concentrations of the compounds (including a control) at 37°C for 24 h. Then the fluorescent intensity was measured at an excitation wavelength of 355 nm and an emission wavelength of 460 nm with a luminescence spectrometer LS50B (Perkin-Elmer Ltd., Buckinghamshire, England). […] All reagents and samples were sterilized by filtration through […] membrane filters.

[3] = DPPH radical scavenging assay; conditions: for IC50: 15 min incubation in the dark, mean ± SEM; for inhibitory effect on DPPH (in words): at the same concentration when compared to other compounds
Description: The stable free radical, DPPH, was used to determine the free radical scavenging activity of the SHL extracts. Briefly, a 0.32 mM solution of DPPH in methanol was prepared, and then 180 µl of this solution was mixed with 30 µl of each sample (1.0 to 5.0 mg/mL in methanol). After 15 min of incubation in the dark, the decrease in the absorbance of the solution was measured at 570 nm on a microplate reader (EL800 Universal Microplate reader, Bio-Tek instruments, Winooski, VT, USA).

Compound | IC50 [1] | IC50 [2] | IC50 AGEs [2] | IC50 [3] | inhibitory effect on DPPH (in words) [3]
O=c1cc(-c2ccc(O)c(O[C@@H]3O[C@H](CO)[C@@H](O)[C@H](O)[C@H]3O)c2)oc2cc(O)cc(O)c12 [luteolin-3′-O-β-D-glucopyranoside] | 7.34 to 24 µM | – | – | – | –
N=C(N)NN [Aminoguanidine, aminoguanidine, reference compound] | – | 820 ± 79.4 µM | 90.70 ± 8.71 µg/mL | – | –
O=C(O)CCc1ccc(O)c(O)c1 [Compound 1, 3-(3,4-dihydroxyphenyl)-propionic acid] | > 1000 µM | 184 ± 17.6 µM | – | 110 ± 9.39 µM | –
O=c1c(O[C@@H]2O[C@H](CO)[C@@H](O)[C@H](O)[C@H]2O)c(-c2ccc(O)c(O)c2)oc2cc(O)cc(O)c12 [Compound 6, quercetin-3-O-β-D-glucopyranoside] | 10.4 ± 1.38 µM | > 1000 µM | – | 122 ± 10.9 µM | –
O=C(/C=C/c1ccc(O)c(O)c1)OC[C@H]1O[C@@H](OCCc2ccc(O)c(O)c2)[C@H](O)[C@@H](O)[C@@H]1O [Compound 4, calceolarioside B] | 24 ± 2.3 µM | > 1000 µM | – | 94.6 ± 6.86 µM | –
O=C(/C=C/c1ccc(O)c(O)c1)O[C@@H]1C[C@](O)(C(=O)O)C[C@@H](O)[C@H]1O [Compound 2, chlorogenic acid] | 8.35 ± 0.45 µM | > 1000 µM | – | – | –
O=c1cc(-c2ccc(O)c(O)c2)oc2cc(O[C@@H]3O[C@H](CO)[C@@H](O)[C@H](O)[C@H]3O)cc(O)c12 [luteolin-7-O-β-D-glucopyranoside] | 7.34 to 24 µM | – | – | – | –
neochlorogenic acid [Compound 3] | 72 ± 25.8 µM | 115 ± 10.5 µM | – | > 1000 µM | no an inhibitory effect
O=C1O[C@H]([C@@H](O)CO)C(O)=C1O [L-ascorbic acid, reference compound] | – | – | – | 54.4 ± 5.73 µM | –
O=c1cc(-c2ccc(O)c(O[C@@H]3O[C@H](CO)[C@@H](O)[C@H](O)[C@H]3O)c2)oc2cc(O)cc(O)c12 [Compound 5, luteolin-3′-O-β-D-glucopyranoside] | 7.34 ± 0.35 µM | 118 ± 11.5 µM | – | 96.3 ± 9.19 µM | –
O=c1cc(-c2ccc(O)c(O)c2)oc2cc(O[C@@H]3O[C@H](CO)[C@@H](O)[C@H](O)[C@H]3O)cc(O)c12 [Compound 7, luteolin-7-O-β-D-glucopyranoside] | 16.1 ± 1.2 µM | > 1000 µM | – | > 1000 µM | no an inhibitory effect
O=c1c(O[C@@H]2O[C@H](CO)[C@@H](O)[C@H](O)[C@H]2O)c(-c2ccc(O)c(O)c2)oc2cc(O)cc(O)c12 [quercetin-3-O-β-D-glucopyranoside] | 7.34 to 24 µM | – | – | – | –
